Test [1] relates to beagle dogs (without left ventricular dysfunction). The test can be described thus: AF inducibility and LA size/function with phenylephrine on board, dobutamine (Example 4). The note with it: FIG. 6. The class given is in vivo. The protocol:
Once sinus rhythm was re-established (cardioversion was used if AF persisted for more than 30 minutes), a third anesthetized ECHO was performed.
The effects of dobutamine on AF inducibility and LA size and function were examined by echocardiography (ECHO) and electrocardiogram (ECG) in beagle dogs with phenylephrine (PE) on board, and compared to the effects of PE alone. The beagle dogs (without left ventricular dysfunction) were assessed for left atrial function and size and for atrial fibrillation inducibility according to the protocols described in Example 3 (experimental design shown in FIG. 5), allowing for the effects of dobutamine to be compared to those of Compound I as shown in Example 3.

Test [2] concerns beagle dogs under isoflurane anesthesia, right-atrial burst pacing. The test can be described thus: AF inducibility and LA size/function with phenylephrine on board (Example 3). The note with it: P<0.05.

In the case of `CC(CCc1ccc(O)cc1)NCCc1ccc(O)c(O)c1` (stereo not drawn) [dobutamine], the AF duration entry in test [1] (dobutamine 1-10 μg/kg/hr infusion with PE) is “did not reduce AF duration, and in fact increased it”. Besides, the “LV contractility (ΔEF)” value in test [1] (dobutamine 1-10 μg/kg/hr infusion) is on record as “increase LV contractility”.
`CNC[C@H](O)c1cccc(O)c1` [phenylephrine, reference compound]: the “SBP, change induced by phenylephrine” value in test [2] (PE 0.5-20 μg/kg/min fixed rate) is 38±7%. Moreover, the LAmin under phenylephrine in test [2] (PE 0.5-20 μg/kg/min, from 22.9±2.0) came out at 29.3±2.5 mL/m^2. In test [2] (PE 0.5-20 μg/kg/min, from 88.6±2.7), this compound gave an SBP under phenylephrine of 122.4±6.9 mmHg. Further, in test [2] (PE 0.5-20 μg/kg/min, increase), the “LAmin, change induced by phenylephrine” value worked out at 28±3%.

For the origin of these results see patent publication US20230233545A1, “TREATMENT OF ATRIAL DYSFUNCTION” (MyoKardia, Inc., priority 2020, published 2023).
